# Reference: the supplement of paper PMC11208160
# Assay: recombinant UMI read abundance after kanamycin selection (control-corrected) (log10(CPM+1)); higher = more efficient recombination; extreme values may be limits of the assay; sequences stand for … in AGTGCAGAGAAAATCGGCCAGTTTTCTCTGCCTGCAGTCCGCATGCCGTGGGACCCCTTGGGTTCTAACCTGTTGCCTAGATTTATGCAGCGGACTGCCTTTCTCCCAAAGTGATAAACCGG…AGGTTGGTTTCACT; site = the 11-nt donor
# How it was run: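 For the IS621 bridge recombinase, a pooled Escherichia coli screen tested donor and donor-binding-loop pairs. Cells received the pair library together with a target plasmid encoding a fixed target and T7-inducible recombinase, then went onto IPTG (0.07 mM) plus kanamycin or unselected plates in duplicate. After PCR across the donor–target junction and sequencing, recombinant UMI counts were normalized to CPM, averaged, and scaled by control-derived factors. Each value is given as log10(CPM+1).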
row,Sequence,recombinant UMI read abundance (log10)
1,AGAAAGGCATGGACCGGTTTTCCCGGTAATCCGTATTTGCT (site ACAAAGGCTAG),0.00966
2,GTAGCTCCATGGACCGGTTTTCCCGGTAATCCGTATTTGAA (site GTAGCTCCTTT),1
3,GCCACGCCATGGACCGGTTTTCCCGGTAATCCGTATTTGTA (site GCCAAGCCTTA),0.00579
4,GTATGCACATGGACCGGTTTTCCCGGTAATCCGTATTTGTA (site GTATCCACTTA),0.28
5,GCAAGCGCATGGACCGGTTTTCCCGGTAATCCGTATTTGAT (site GCAAGCGCTAT),2.29
6,CGGAAGCCATGGACCGGTTTTCCCGGTAATCCGTATTTGAT (site CGGAAGCCTAT),0.713
7,GATTAGCCATGGACCGGTTTTCCCGGTAATCCGTATTTGCT (site GATTAACCTAG),0
8,TATATCGCATGGACCGGTTTTCCCGGTAATCCGTATTTGAT (site TATATCGCTAT),0.63
9,CTCCTTACATGGACCGGTTTTCCCGGTAATCCGTATTTGAG (site CTCCTTACTCT),0.201
10,GTTATCCCATGGACCGGTTTTCCCGGTAATCCGTATTTGGC (site GTTATCCCTGC),0
11,TTGAACGCATGGACCGGTTTTCCCGGTAATCCGTATTTGAC (site TTGAACGCTGT),0.899
12,CGCTACACATGGACCGGTTTTCCCGGTAATCCGTATTTGCT (site CCCTACACTAG),1.29
13,CACGGCCCATGGACCGGTTTTCCCGGTAATCCGTATTTGTC (site CACGGCCCTTA),0.469
14,CTCTTGGCATGGACCGGTTTTCCCGGTAATCCGTATTTGGA (site CCCTTGGCTTC),0.169
15,ATGGTATCATGGACCGGTTTTCCCGGTAATCCGTATTTGCA (site ACAGTATCTTG),1.69
16,CTTCTACCATGGACCGGTTTTCCCGGTAATCCGTATTTGCT (site CTACTACCTAG),0
17,TGTCCAACATGGACCGGTTTTCCCGGTAATCCGTATTTGTA (site GGTCCAACTTA),0.0289
18,CCCTAGCCATGGACCGGTTTTCCCGGTAATCCGTATTTGCA (site CCCTAGCCTTG),0
19,ATGTCGGCATGGACCGGTTTTCCCGGTAATCCGTATTTGGC (site ATGTGGGCTGC),0
20,ACAGGATCATGGACCGGTTTTCCCGGTAATCCGTATTTGCA (site ACAGCATCTTG),2.01
21,TGGTCCCCATGGACCGGTTTTCCCGGTAATCCGTATTTGTA (site TGTTCCCCTTA),0.00825
22,TCCAACTCATGGACCGGTTTTCCCGGTAATCCGTATTTGCC (site TCCAATTCTGG),0
23,TAGAATACATGGACCGGTTTTCCCGGTAATCCGTATTTGTA (site TAGAATACTTG),0.697
24,CGCTCATCATGGACCGGTTTTCCCGGTAATCCGTATTTGCG (site CGATCATCTAG),0
25,CTCTCCTCATGGACCGGTTTTCCCGGTAATCCGTATTTGCC (site CTCTCCTCTGG),2.63

row,Sequence,recombinant UMI read abundance (log10)
1,TTACATTCATGGACCGGTTTTCCCGGTAATCCGTATTTGAC (site TTACATTCTGT),1.68
2,CCCTCAACATGGACCGGTTTTCCCGGTAATCCGTATTTGGG (site CCCTCAACTCC),0.0112
3,TGGTTCCCATGGACCGGTTTTCCCGGTAATCCGTATTTGTG (site TGGTTCCCTCA),0.0117
4,TCAACCGCATGGACCGGTTTTCCCGGTAATCCGTATTTGCG (site TCCACCGCTCG),0
5,TATGTCCCATGGACCGGTTTTCCCGGTAATCCGTATTTGGA (site TATGTCCCTTC),0.00458
6,CTGTAAACATGGACCGGTTTTCCCGGTAATCCGTATTTGCA (site CTGAAAACTTG),0
7,TGTACACCATGGACCGGTTTTCCCGGTAATCCGTATTTGAC (site TGTACCCCTGT),0
8,CCGGGTTCATGGACCGGTTTTCCCGGTAATCCGTATTTGGC (site CCGGGTTCTGC),1.57
9,CGTCACTCATGGACCGGTTTTCCCGGTAATCCGTATTTGGC (site CGTCACTCTGC),2.8
10,CCCTAGCCATGGACCGGTTTTCCCGGTAATCCGTATTTGCT (site CCCTAGCCTCG),0
11,ATGGTATCATGGACCGGTTTTCCCGGTAATCCGTATTTGAC (site ATGGTATCTGT),3.67
12,TTAGCTGCATGGACCGGTTTTCCCGGTAATCCGTATTTGCG (site TTAGCTGCTCG),1.41
13,ATGCAAGCATGGACCGGTTTTCCCGGTAATCCGTATTTGGA (site ATGCAAGCTTC),1.86
14,GGATAGACATGGACCGGTTTTCCCGGTAATCCGTATTTGCC (site GTATAGACTGG),1.89
15,GAGTGGCCATGGACCGGTTTTCCCGGTAATCCGTATTTGCA (site GAGTGGCCTTG),0
16,TCCGAGACATGGACCGGTTTTCCCGGTAATCCGTATTTGCG (site TCAGAGACTCG),0.0174
17,CGCATCACATGGACCGGTTTTCCCGGTAATCCGTATTTGCC (site CGCATCACTGG),1.78
18,TAGCCTTCATGGACCGGTTTTCCCGGTAATCCGTATTTGGT (site TAGTCTTCTAC),0
19,GGAGTGTCATGGACCGGTTTTCCCGGTAATCCGTATTTGGT (site GGAGTGTCTAC),1.71
20,TAATGAACATGGACCGGTTTTCCCGGTAATCCGTATTTGGG (site TAATGACCTCC),0.0112
21,ACTAGAACATGGACCGGTTTTCCCGGTAATCCGTATTTGAG (site TCTAGAACTCT),0.854
22,GGATAGACATGGACCGGTTTTCCCGGTAATCCGTATTTGCC (site GGATAGACTGA),1.38
23,TAGGAATCATGGACCGGTTTTCCCGGTAATCCGTATTTGCT (site TAGGAATCTTG),1.5
24,CGTAGTCCATGGACCGGTTTTCCCGGTAATCCGTATTTGTT (site CGTAGTCCTAA),0.247
25,TCATACTCATGGACCGGTTTTCCCGGTAATCCGTATTTGCT (site TCATACTCTTG),0

row,Sequence,recombinant UMI read abundance (log10)
1,TGTTCCCCATGGACCGGTTTTCCCGGTAATCCGTATTTGTA (site TGTTCCACTTA),0.0238
2,ATCTATACATGGACCGGTTTTCCCGGTAATCCGTATTTGCC (site ATCTATACTGC),0
3,TTATTGTCATGGACCGGTTTTCCCGGTAATCCGTATTTGCA (site TTATTGTCTTG),2.35
4,CAGTCACCATGGACCGGTTTTCCCGGTAATCCGTATTTGTA (site CAGTCACCTTA),0.0069
5,ATTCGAGCATGGACCGGTTTTCCCGGTAATCCGTATTTGCA (site ATTCGAGCTTG),1.49
6,GGATAGACATGGACCGGTTTTCCCGGTAATCCGTATTTGCC (site TGATAGACTGG),2.09
7,ATGCAAGCATGGACCGGTTTTCCCGGTAATCCGTATTTGAG (site ATGCAAGCTCT),2.26
8,TAGGAATCATGGACCGGTTTTCCCGGTAATCCGTATTTGCG (site TCGGAATCTCG),1.51
9,GGATAGACATGGACCGGTTTTCCCGGTAATCCGTATTTGCC (site GGATGGACTGG),0
10,GGGTCACCATGGACCGGTTTTCCCGGTAATCCGTATTTGCC (site GGGTCACCTGG),0
11,GTAGGGACATGGACCGGTTTTCCCGGTAATCCGTATTTGAC (site GTAGGTACTGT),1.87
12,CTCGTATCATGGACCGGTTTTCCCGGTAATCCGTATTTGTC (site CTCGTATCTGA),2.69
13,TTAGCTGCATGGACCGGTTTTCCCGGTAATCCGTATTTGCG (site TTAGCTGCTCT),0.00813
14,TGCCCCACATGGACCGGTTTTCCCGGTAATCCGTATTTGAC (site TGCCCCACTGT),1.39
15,CGAAGAGCATGGACCGGTTTTCCCGGTAATCCGTATTTGAC (site CGAAGAGCTGT),2.51
16,AGAAAGGCATGGACCGGTTTTCCCGGTAATCCGTATTTGCT (site AGAAAGGCTAT),1.27
17,TAGCCTCCATGGACCGGTTTTCCCGGTAATCCGTATTTGGT (site TAGCCTGCTAC),0.0298
18,GTATGCACATGGACCGGTTTTCCCGGTAATCCGTATTTGTA (site GCATGCACTTA),0.671
19,ACCTTGACATGGACCGGTTTTCCCGGTAATCCGTATTTGGG (site ACCTGGACTCC),0.0127
20,AGCCAAGCATGGACCGGTTTTCCCGGTAATCCGTATTTGTT (site AGCCTAGCTAA),0.0061
21,CCTTAGCCATGGACCGGTTTTCCCGGTAATCCGTATTTGCC (site CCTTAGCCTGG),0
22,AGCTCACCATGGACCGGTTTTCCCGGTAATCCGTATTTGGG (site AGCTCAGCTCC),0.0165
23,GATTATCCATGGACCGGTTTTCCCGGTAATCCGTATTTGCG (site GATTATCCTCG),0.363
24,TTTTCCCCATGGACCGGTTTTCCCGGTAATCCGTATTTGTA (site TCTTCCCCTTA),0.00391
25,CCCGGTCCATGGACCGGTTTTCCCGGTAATCCGTATTTGAA (site CCCGGTCCTTA),0
